Patent US20130302344A1, “METHODS AND MEDICAMENTS FOR THE TREATMENT OF GOUT OR PSEUDOGOUT” (TOPOTARGET SWITZERLAND SA, priority 2006, published 2013)
Entries after “also recorded” stand apart in the source; their conditions may differ.

Experiments:
gout = assay: Case reports of patients with proven gout; type: in vivo, human; conditions: for adverse effects of earlier gout treatments: patient history in cases 1-4, doses as stated per case; for response of gouty arthritis to earlier treatment: cases 3 and 4, prednisone 30 mg daily tapering over 7 days, colchicine 1 mg daily; for response of acute gouty arthritis / recurrence on follow-up: gout patients; for response of acute gouty arthritis: anakinra 100 mg daily for 2-3 days (cases 1-3); for recurrence on follow-up: one to two months after anakinra
Description: Four patients with proven gout were treated with anakinra (Kineret).

THP1 cells [1] = assay: TNF-α production by stimulated THP1 cells (ELISA); type: cell-based, human; conditions: FIG. 5a
Description: (§1) a, THP1 cells were stimulated with MSU, CPPD or Zymosan (Zym) for the indicated, times in the presence or absence of the caspase-1 inhibitor zYVAD-fink. Supernatants were analyzed for TNF-α (gray bars) and IL-1β (black bars) production by ELISA. b, human monocytes were incubated with MSU or CPPD in the presence of two concentrations of IL-1Ra. TNF-α and IL-6 production was monitored by ELISA.
(§2) THP1 were stimulated for 3 h with 0.5 μM of PMA the day before stimulation as described^10. This treatment increases the phagocytic properties of the cells and induces a constitutive production of proIL-1β^33. Human monocytes were purified as described before^30. All cells were stimulated in OptiMEM medium as indicated. Human mature IL-1β was detected with a specific antibody directed. against the cleaved epitope (D116) from Cell Signalling, or with an Enzyme-linked immunoabsorbent assay (ELISA) from BD bioscience. TNF and IL-6 were detected by an ELISA from ImmunoTools and caspase-1 by an ELISA from Alexis. IL-18 was detected. with an antibody from MBL (D044-3) and. Caspase-1 with an antibody from Santa Cruz Biotechnology (sc-622), The antibody against human IL-1β[…] was a gift from Roberto Solari, Glaxo. z-YVAD-fmk was purchased from Alexis Biochemicals. IL-1ra (anakinra, Kineret) was from Amgen (thousand Oaks, USA).

THP1 cells [2] = assay: IL-1β maturation in PMA-primed THP1 cells stimulated with crystals or ATP (Western blot); type: cell-based, human
Description: a-c, THP1 cells were stimulated for 6 h with the indicated amounts/ml of MSU crystals (a), CPPD (b) or with 50 μg/ml of pure LPS, MSU, allopurinol crystals, CPPD crystals, diamond crystals, aluminum particles, zymosan, crude preparations of LPS, or 5 mM of extracellular ATP as indicated (c). Supernatants (SN) were analyzed for the presence of mature IL-1β, IL-18 or caspase-1, and cell extracts (Cell) for the presence of proIL-1β and proIL-18. d, human monocytes were stimulated with 50 μg/ml of the indicated crystals for 6 h and analyzed by Western blot for IL-1β activation or by ELISA for released. caspase-1 and IL-1β.
THP1 cells were pre-treated with the P2X antagonist pyridoxal-phosphate-6-azophenyl-2′,4′-disulfonic acid (PPADS, Alexis) for 30 min and subsequently stimulated for 6 h with MSU crystals (50 μg/ml). Supernatants (SN) were analyzed for the presence of mature IL-1β and cell extracts (Cell) for the presence of proIL-1β.
THP1 cells were stimulated with MSU, CPPD or ATP in the presence or absence of colchicine (colch). Maturation of IL-1β was analyzed by Western Blot.
as §2

[3] = oral; cited from earlier work
MSU-induced inflammation = conditions: intravenous pretreatment; cited from earlier work
[4] = test system: mouse peritoneal exudate cells; assay: TNF production by LPS-treated mouse peritoneal exudate cells (ELISA); type: cell-based; conditions: 200 nM, 1 μg/ml LPS overnight; FIG. 8a
Description: BALB/C mice were intraperitoneally injected with a 4% solution of thioglycollate. Six days later, peritoneal exudate cells (PEC) were collected by washing the peritoneal cavity with phosphate buffer saline. Cells were distributed in wells of tissue culture 12 well plates (10^6 cells/well). Non-adherent cells were washed and adherent cells were treated. with 1 μg/ml of Ultrapure LPS (Invivogen) in the presence or the absence of 200 nM of 17-AAG (Invivogen). (a) After overnight culture, the supernatants were collected and used for determination of TNF by ELISA. (b, c) Fresh medium was added on the cells in the presence or the absence of 2 mM of ATP or 100 μg/ml MSU. After 5 hours, the supernatants were collected and IL-1β was determined by ELISA. (d) Mouse peritoneal macrophages were treated with 500 ng/ml of Ultrapure LPS (Invivogen) in the presence or the absence of 50 nM of 17-DMAG (Invivogen). […] After 4 hours, the supernatants were collected and IL-1β was determined by ELISA. […] After 6 hours, the supernatants were collected and IL-1β was determined by ELISA.
Eight to twelve week-old mice of indicated genotypes were injected i.p. with 4% thioglycollate solution, and macrophages were collected by peritoneal lavage 3-6 days later. […] Caspase-1 was analyzed using an antibody from Santa Cruz Biotechnology (se-514) and ASC using an antibody as described previously^34. […]

[5] = test system: mouse peritoneal exudate cells; assay: IL-1β production by mouse peritoneal macrophages (ELISA); type: cell-based
Description: (§3) BALB/C mice were intraperitoneally injected with a 4% solution of thioglycollate. Six days later, peritoneal exudate cells (PEC) were collected by washing the peritoneal cavity with phosphate buffer saline. Cells were distributed in wells of tissue culture 12 well plates (10^6 cells/well). Non-adherent cells were washed and adherent cells were treated. with 1 μg/ml of Ultrapure LPS (Invivogen) in the presence or the absence of 200 nM of 17-AAG (Invivogen). (a) After overnight culture, the supernatants were collected and used for determination of TNF by ELISA. (b, c) Fresh medium was added on the cells in the presence or the absence of 2 mM of ATP or 100 μg/ml MSU. After 5 hours, the supernatants were collected and IL-1β was determined by ELISA. (d) Mouse peritoneal macrophages were treated with 500 ng/ml of Ultrapure LPS (Invivogen) in the presence or the absence of 50 nM of 17-DMAG (Invivogen). 2 hours later, cells were stimulated with 500 μg/ml MSU. After 4 hours, the supernatants were collected and IL-1β was determined by ELISA. (e) Human blood monocytes were treated with 1 μg/ml of Ultrapure LPS (Invivogen) in the presence or the absence of graded doses of 17-DMAG (Invivogen). After overnight culture, cells were stimulated with 100 μg/ml MSU. After 6 hours, the supernatants were collected and IL-1β was determined by ELISA.
Eight to twelve week-old mice of indicated genotypes were injected i.p. with 4% thioglycollate solution, and macrophages were collected by peritoneal lavage 3-6 days later. Cells were plated at the density of 7×10^5 cells in twelve-well dishes and. non-adherent cells were removed after 3 h. Cells were cultured in RPMI complemented with 10% FCS, sodium pyruvate, penicillin/streptomycin and L-glutamin. All cells were stimulated in OptiMEM medium as described above. Caspase-1 was analyzed using an antibody from Santa Cruz Biotechnology (se-514) and ASC using an antibody as described previously^34. The antibody against mouse IL-1β[…]was a gift from Roberto Solari, Glaxo. […]

human blood monocytes = assay: IL-1β production by MSU-stimulated human blood monocytes (ELISA); type: cell-based; conditions: graded doses, LPS overnight, 100 μg/ml MSU 6 h; FIG. 8e
Description: as §3

[6] = test system: MSU-induced neutrophil recruitment; assay: MSU crystal-induced aseptic peritonitis, neutrophil recruitment (FACS); type: in vivo, mouse
Description: Aseptic peritonitis was induced in female C57BL/6 mice by injection of 500 μg monosodium urate crystals (MSU) with PBS, 200 μg anakinra (Kineret, Amgen Inc., Thousand Oaks, USA), 200 μg anti-IL-1RI monoclonal antibody (BD Pharmingen, San Jose, USA), 200 μg anti-IL-1α monoclonal antibody (Biolegend, San Diego, USA), 200 μg anti-IL-1β monoclonal antibody ((Biolegend, San Diego, USA), or combination of 200 μg anti-IL-1α monoclonal antibody and 200 μg anti-IL-1β monoclonal antibody. After 6 h, mice were killed and the peritoneal cavity was washed with 10 ml of cold PBS. The lavage fluids were analyzed for neutrophil recruitment by FACS using the neutrophil markers CD11b and Gr1 (Ly-6G). Values are±s.e.m. of total neutrophil counts with 4-5 animals per group, Unpaired Students t test was used to calculate P value. […] The lavage fluids were analyzed for neutrophil recruitment by FACS using the neutrophil markers CD11b and Gr1 (Ly-6G), Values are±s.e.m. of total neutrophil counts with 4-5 animals per group. […] The lavage fluids were analyzed for neutrophil recruitment by FACS using the neutrophil markers CD11b and Gr1 (Ly-6G). […] The lavage fluids were analysed for PMN recruitment by FACS using the neutrophil marker Ly-6G and CD11b (BD Pharmingen).

human monocytes = assay: TNF-α and IL-6 production by human monocytes incubated with MSU or CPPD (ELISA); type: cell-based; conditions: two concentrations of IL-1Ra, FIG. 5b
Description: as §1, §2

Molecule: O=C(O)Cc1ccccc1Nc1c(Cl)cccc1Cl [diclofenac]
- adverse effects of earlier gout treatments (gout): gastrointestinal side effects including one episode of G-I hemorrhage

Molecule: COC(=O)C[C@H](NC(=O)[C@H](C)NC(=O)[C@@H](NC(=O)[C@H](Cc1ccc(O)cc1)NC(=O)OCc1ccccc1)C(C)C)C(=O)CF [zYVAD-fmk]
- TNF-α production by the TLR2 agonist Zymosan (THP1 cells [1]): without affecting
- reduction of TNF-α production induced by MSU and CPPD (THP1 cells [1]): more than 50%
- MSU-induced IL-1β activation (THP1 cells [2]; MSU crystals, 6 h, FIG. 1a): completely blocked

Molecule: C[C@]12C=CC(=O)C=C1CC[C@@H]1[C@@H]2C(=O)C[C@@]2(C)[C@H]1CC[C@]2(O)C(=O)CO [prednisone]
- response of gouty arthritis to earlier treatment (gout): the arthritis remained active

Molecule: Oc1ncnc2[nH]ncc12 [allopurinol]
- adverse effects of earlier gout treatments (gout): severe cutaneous reaction; also recorded: acute gout developed after the first dose; also recorded: induced flare-ups of arthritis

Molecule: COc1cc2c(c(OC)c1OC)-c1ccc(OC)c(=O)cc1[C@@H](NC(C)=O)CC2 [colchicine]
- side effects limiting use [3]: nausea and abdominal pain
- inflammation after intraarticular MSU injections (MSU-induced inflammation): greatly reduces inflammation
- response of gouty arthritis to earlier treatment (gout): ineffective
- adverse effects of earlier gout treatments (gout): rectal bleeding; also recorded: diarrhea
- adverse effects of earlier gout treatments (gout; listed as Colchicine): intolerable diarrhea; also recorded: rapid onset of diarrhea
- IL-1β activation by extracellular ATP (THP1 cells [2]; FIG. 6): did not affect
- crystal-induced processing of IL-1β (THP1 cells [2]; MSU or CPPD, pretreatment, FIG. 6): completely blocked

Molecule: C=CCNC1=C2C[C@@H](C)C[C@H](OC)[C@H](O)[C@@H](C)/C=C(\C)[C@H](OC(N)=O)[C@@H](OC)/C=C\C=C(/C)C(=O)NC(=CC1=O)C2=O [17-AAG, 17-(Allylamino)-17-demethoxygeldanamycin]
- reduction of TNFα production [4]: less than 50%
- production of IL-1β by mouse macrophages stimulated by MSU crystals ([5]; 200 nM, LPS overnight, 100 μg/ml MSU 5 h, FIG. 8c): almost completely inhibited
- production of IL-1β by mouse macrophages stimulated by ATP ([5]; 200 nM, LPS overnight, 2 mM ATP 5 h, FIG. 8b): almost completely inhibited

Molecule: CO[C@H]1/C=C\C=C(/C)C(=O)NC2=CC(=O)C(NCCN(C)C)=C(C[C@@H](C)C[C@H](OC)[C@H](O)[C@@H](C)/C=C(\C)[C@@H]1OC(N)=O)C2=O [17-DMAG, 17-(Dimethylaminoethylamino)-17-demethoxygeldanamycin]
- production of IL-1β by human blood monocytes stimulated by MSU crystals (human blood monocytes): inhibited
- production of IL-1β by mouse macrophages stimulated by MSU crystals ([5]; 50 nM, LPS 2 h, 500 μg/ml MSU 4 h, FIG. 8d): inhibited
- neutrophil influx in response to MSU ([6]; female BALB/C mice, 25 mg/kg intraperitoneally 1 h before 500 μg MSU, FIG. 14): reduced

Molecule: CCc1oc2ccccc2c1C(=O)c1cc(Br)c(O)c(Br)c1 [benzbromazone]
- adverse effects of earlier gout treatments (gout): renal stones

Molecule: anakinra: IL-1 receptor type I (IL-1RI) antagonist, IL-1Ra also known as anakinra, marketed under the name Kineret
- response of acute gouty arthritis (gout): complete resolution of arthritis by the second day; also recorded: responded rapidly
- response of acute gouty arthritis (gout; listed as Anakinra): rapid reduction in joint pain over 48 h
- response of acute gouty arthritis (gout; listed as Anankinra): rapid resolution of signs and symptoms of arthritis
- recurrence on follow-up (gout): no recurrence of arthritis; also recorded: asymptomatic two months later
- recurrence on follow-up (gout; listed as Anakinra): No acute flares
- recurrence on follow-up (gout; listed as Anankinra): no further flare-ups
- IL-6 production by human monocytes (human monocytes): significantly affected
- TNF-α production by human monocytes (human monocytes): significantly affected
- neutrophil influx ([6]; female C57BL/6 mice, 500 μg MSU, 200 μg of each agent, 6 h, FIG. 12): almost entirely prevented
